Data published in PubChem BioAssay AID248 (DTP/NCI, 2004).
“And” between values parts separate entries of the source, which are not always exact repeats. Equal values may be shown once. Inconclusive results and toxic doses are left out. Cut-off read from the data, not from the text of the source: active = T/C of 150% or more; inactive = T/C below 125%.

Tested on: L1210 leukemia ip in BDF1 mice, survival T/C
Test: NCI In Vivo Anticancer Drug Screen. Data for tumor model L1210 Leukemia (intraperitoneal) in B6D2F1 (BDF1) mice
Details: endpoint: mean survival time, higher = longer survival
Procedure, shortened: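 In this screen, tumor-bearing mice given compound are compared to those given vehicle, and their survival values are reported as a treated-to-control quotient.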

[1] = dose: 100.0 mg/kg/injection, schedule: Q01DX001 (ip), vehicle: carboxymethylcellulose (CMC)
[2] = dose: 100.0 mg/kg/injection, schedule: Q04DX003 (ip), vehicle: carboxymethylcellulose (CMC)
[3] = dose: 200.0 mg/kg/injection, schedule: Q01DX001 (ip), vehicle: carboxymethylcellulose (CMC)
[4] = dose: 200.0 mg/kg/injection, schedule: Q04DX003 (ip), vehicle: carboxymethylcellulose (CMC)
[5] = dose: 400.0 mg/kg/injection, schedule: Q01DX001 (ip), vehicle: carboxymethylcellulose (CMC)
[6] = dose: 400.0 mg/kg/injection, schedule: Q01DX009 (ip), vehicle: carboxymethylcellulose (CMC)
[7] = dose: 400.0 mg/kg/injection, schedule: Q04DX003 (ip), vehicle: carboxymethylcellulose (CMC)
[8] = dose: 50.0 mg/kg/injection, schedule: Q01DX001 (ip), vehicle: carboxymethylcellulose (CMC)
[9] = dose: 100.0 mg/kg/injection, schedule: Q04DX002 (ip), vehicle: Klucel (hydroxypropylcellulose) (HPC)
[10] = dose: 200.0 mg/kg/injection, schedule: Q04DX002 (ip), vehicle: Klucel (hydroxypropylcellulose) (HPC)
[11] = dose: 400.0 mg/kg/injection, schedule: Q04DX002 (ip), vehicle: Klucel (hydroxypropylcellulose) (HPC)
[12] = dose: 100.0 mg/kg/injection, schedule: Q04DX003 (ip), vehicle: saline with Tween-80
[13] = dose: 200.0 mg/kg/injection, schedule: Q04DX003 (ip), vehicle: saline with Tween-80
[14] = dose: 400.0 mg/kg/injection, schedule: Q04DX003 (ip), vehicle: saline with Tween-80
[15] = dose: 100.0 mg/kg/injection, schedule: Q01DX001 (ip), vehicle: saline
[16] = dose: 200.0 mg/kg/injection, schedule: Q01DX001 (ip), vehicle: saline
[17] = dose: 400.0 mg/kg/injection, schedule: Q01DX001 (ip), vehicle: saline

Measured: T/C

O=C(Nc1cccc(O)c1)Nc1cccc(C(F)(F)F)c1
inactive: [1] 92 % of control and 101 % of control | dose: 100.0 mg/kg/injection, schedule: Q01DX009 (ip), vehicle: carboxymethylcellulose (CMC) 94 % of control and 96 % of control | dose: 100.0 mg/kg/injection, schedule: Q04DX002 (ip), vehicle: carboxymethylcellulose (CMC) 92 % of control and 93 % of control | [2] 95 % of control and 100 % of control | [3] 96 % of control and 87 % of control | dose: 200.0 mg/kg/injection, schedule: Q01DX009 (ip), vehicle: carboxymethylcellulose (CMC) 94 % of control and 100 % of control | dose: 200.0 mg/kg/injection, schedule: Q04DX002 (ip), vehicle: carboxymethylcellulose (CMC) 92 % of control and 86 % of control | [4] 92 % of control and 91 % of control | [5] 92 % of control and 93 % of control | [6] 100 % of control and 91 % of control | dose: 400.0 mg/kg/injection, schedule: Q04DX002 (ip), vehicle: carboxymethylcellulose (CMC) 95 % of control and 100 % of control | [7] 87 % of control and 91 % of control

CCOC(=O)CSC(=S)SCC(=O)OCC
inactive: dose: 100.0 mg/kg/injection, schedule: Q04DX003 (ip), vehicle: saline 104 % of control | dose: 200.0 mg/kg/injection, schedule: Q04DX003 (ip), vehicle: saline 105 % of control | dose: 400.0 mg/kg/injection, schedule: Q04DX003 (ip), vehicle: saline 107 % of control

CC(=O)CC(SCCSCCSC(CC(C)=O)c1ccccc1)c1ccccc1 (stereo not given)
inactive: [8] 89 % of control | [1] 89 % of control | [3] 97 % of control | [5] 97 % of control

c1ccc(C(N2CCN(c3ccccc3)CC2)N2CCN(c3ccccc3)CC2)cc1
inactive: [9] 94 % of control | [10] 94 % of control | [11] 94 % of control

CCCCCCCCCCCCCCCC[N+](C)(CCO)Cc1ccccc1 (stereo not given)
inactive: dose: 12.5 mg/kg/injection, schedule: Q04DX002 (ip), vehicle: saline with Tween-80 93 % of control

O=C(NC/C(Br)=C/Br)Oc1cccc2c1CCCC2
inactive: dose: 100.0 mg/kg/injection, schedule: Q04DX002 (ip), vehicle: other 94 % of control | dose: 200.0 mg/kg/injection, schedule: Q04DX002 (ip), vehicle: other 94 % of control | dose: 400.0 mg/kg/injection, schedule: Q04DX002 (ip), vehicle: other 91 % of control

O=C(O)c1ccccc1C(=O)Nc1ccccc1Cl
inactive: [12] 96 % of control | [13] 102 % of control | [14] 102 % of control

CC12CCC(C(=O)C1=O)C2(C)C (stereo not given)
inactive: [8] 121 % of control | [1] 103 % of control | [9] 99 % of control | [3] 109 % of control | [10] 96 % of control | [5] 113 % of control | [11] 89 % of control

c1cnc[c]([Hg][c]2cccnc2)c1
inactive: dose: 12.5 mg/kg/injection, schedule: Q01DX009 (ip), vehicle: Klucel (hydroxypropylcellulose) (HPC) 91 % of control | dose: 12.5 mg/kg/injection, schedule: Q04DX002 (ip), vehicle: Klucel (hydroxypropylcellulose) (HPC) 98 % of control | dose: 25.0 mg/kg/injection, schedule: Q01DX009 (ip), vehicle: Klucel (hydroxypropylcellulose) (HPC) 88 % of control | dose: 25.0 mg/kg/injection, schedule: Q04DX002 (ip), vehicle: Klucel (hydroxypropylcellulose) (HPC) 98 % of control | dose: 50.0 mg/kg/injection, schedule: Q01DX009 (ip), vehicle: Klucel (hydroxypropylcellulose) (HPC) 95 % of control | dose: 50.0 mg/kg/injection, schedule: Q04DX002 (ip), vehicle: Klucel (hydroxypropylcellulose) (HPC) 103 % of control

CSc1ccc(-c2nc3ncnc(N)c3[nH]2)cc1
inactive: dose: 25.0 mg/kg/injection, schedule: Q01DX001 (ip), vehicle: gum acacia 95 % of control | dose: 50.0 mg/kg/injection, schedule: Q01DX001 (ip), vehicle: gum acacia 93 % of control

CN(C)c1ccc(C=Nc2cc(Cl)ccc2O)cc1
inactive: [15] 107 % of control | [16] 100 % of control | [17] 100 % of control

CC(C)(C)CC(C)(C)c1ccc(OCCOc2ccc(C(=O)Nc3ccc(NC(=O)c4ccc5ccccc5c4O)cc3)cc2)cc1
inactive: [12] 105 % of control | [13] 90 % of control | [14] 90 % of control

CN(C)/C=C1/C=Cc2ccccc21
inactive: dose: 100.0 mg/kg/injection, schedule: Q01DX009 (ip), vehicle: saline 98 % of control | dose: 200.0 mg/kg/injection, schedule: Q01DX009 (ip), vehicle: saline 101 % of control | dose: 400.0 mg/kg/injection, schedule: Q01DX009 (ip), vehicle: saline 97 % of control

CSc1nnc2sc(=S)[nH]n12
inactive: [1] 105 % of control | [3] 90 % of control | [5] 94 % of control

CCCCCCCCCCCCCCCCOc1ccc(S(=O)(=O)Nc2cc(C(=O)OC)cc(C(=O)OC)c2)cc1N
inactive: [12] 97 % of control | [13] 90 % of control | [14] 90 % of control

O=C1OCC/C1=C\c1cccc(/C=C2\CCOC2=O)c1
inactive: dose: 25.0 mg/kg/injection, schedule: Q04DX002 (ip), vehicle: saline with Tween-80 92 % of control | dose: 50.0 mg/kg/injection, schedule: Q04DX002 (ip), vehicle: saline with Tween-80 95 % of control | dose: 100.0 mg/kg/injection, schedule: Q04DX002 (ip), vehicle: saline with Tween-80 106 % of control | dose: 200.0 mg/kg/injection, schedule: Q04DX002 (ip), vehicle: saline with Tween-80 100 % of control

CCN(Cc1ccc(Cl)c(Cl)c1)c1ccc2nc(N)nc(N)c2c1C
inactive: dose: 1.56 mg/kg/injection, schedule: Q01DX009 (ip), vehicle: water 110 % of control | dose: 3.12 mg/kg/injection, schedule: Q01DX009 (ip), vehicle: water 103 % of control and 110 % of control | dose: 6.25 mg/kg/injection, schedule: Q01DX009 (ip), vehicle: water 116 % of control and 124 % of control | dose: 12.5 mg/kg/injection, schedule: Q01DX009 (ip), vehicle: water 121 % of control | dose: 25.0 mg/kg/injection, schedule: Q01DX009 (ip), vehicle: water 110 % of control

CCCCCCCCCCCCCC(=O)N(CCCC)CCCC
inactive: dose: 50.0 mg/kg/injection, schedule: Q01DX009 (ip), vehicle: carboxymethylcellulose (CMC) 98 % of control and 90 % of control | [1] 94 % of control | [2] 95 % of control | [3] 93 % of control | [4] 92 % of control | [5] 98 % of control | [6] 95 % of control and 104 % of control | [7] 96 % of control

O=C(O)CCC(=O)c1ccc(Cl)cc1
inactive: dose: 6.25 mg/kg/injection, schedule: Q01DX009 (ip), vehicle: saline with Tween-80 88 % of control | dose: 12.5 mg/kg/injection, schedule: Q01DX009 (ip), vehicle: saline with Tween-80 90 % of control | dose: 25.0 mg/kg/injection, schedule: Q01DX009 (ip), vehicle: saline with Tween-80 97 % of control

S=C(S)Nc1ccc(Cc2ccc(NC(=S)S)cc2)cc1
inactive: [12] 95 % of control | [13] 91 % of control | [14] 98 % of control

CCC(=O)CC1CCCC(CC(=O)CC)N1 (stereo not given)
inactive: dose: 75.0 mg/kg/injection, schedule: Q01DX001 (ip), vehicle: saline 96 % of control | dose: 150.0 mg/kg/injection, schedule: Q01DX001 (ip), vehicle: saline 104 % of control

O=C1C=C(Nc2ccc(N(CCCl)CCCl)cc2)c2ccccc2C1=O
inactive: dose: 100.0 mg/kg/injection, schedule: Q04DX003 (ip), vehicle: Klucel (hydroxypropylcellulose) (HPC) 107 % of control | dose: 200.0 mg/kg/injection, schedule: Q04DX003 (ip), vehicle: Klucel (hydroxypropylcellulose) (HPC) 114 % of control | dose: 400.0 mg/kg/injection, schedule: Q04DX003 (ip), vehicle: Klucel (hydroxypropylcellulose) (HPC) 95 % of control

O=C(O)C(O)C(O)C(O)C(O)CO.O=C(O)C(O)C(O)C(O)C(O)CO.O=C(O)C(O)C(O)C(O)C(O)CO.[Ga] (stereo not given)
inactive: dose: 50.0 mg/kg/injection, schedule: Q01DX001 (ip), vehicle: saline 101 % of control | [15] 103 % of control | [16] 112 % of control | [17] 100 % of control

CN(C)C(=S)[S][Sb]([c]1ccccc1)[c]1ccccc1
inactive: dose: 100.0 mg/kg/injection, schedule: Q01DX001 (ip), vehicle: other 96 % of control

O=C1C=CCC2c3nc4ccccc4cc3CN12 (stereo not given)
inactive: dose: 37.5 mg/kg/injection, schedule: Q04DX003 (ip), vehicle: saline 95 % of control | dose: 75.0 mg/kg/injection, schedule: Q04DX003 (ip), vehicle: saline 93 % of control | dose: 150.0 mg/kg/injection, schedule: Q04DX003 (ip), vehicle: saline 95 % of control
